Data taken from US4005075A, “Penicillins and their preparation” (Sumitomo Chemical Company, Limited, priority 1973, dated 1977).
Converted amounts (≈) assume the structure as drawn.

Key:
[1] = system: Escherichia coli NIHJ; experiment: Antimicrobial activity, agar dilution method (minimal inhibitory concentration); type: cell-based
Description: (§1) The antimicrobial activities of the compounds obtained in the above Examples determined by the standard test method (i.e. agar dilution method) as well as those of the following penicillins as disclosed in U.S. Pat. No. 3,433,784 are shown in Table 2: [drawing 59]

[2] = system: Klebsiella pneumoniae 602; experiment: as above; type: cell-based
Description: as §1

[3] = system: Proteus miravilis 2425; experiment: as above; type: cell-based
Description: as §1

[4] = system: Proteus vulgaris HX19; experiment: as above; type: cell-based
Description: as §1

[5] = system: Psudomonas aeruginosa 104; experiment: as above; type: cell-based
Description: as §1

[6] = system: Staphylococcus aureus 209P; experiment: as above; type: cell-based
Description: as §1

[7] = system: Pseudomonas; conditions: prior art penicillins; cited from earlier work

| SMILES | MIC [1] [µg/mL] | MIC [2] [µg/mL] | MIC [3] [µg/mL] | MIC [4] [µg/mL] | MIC [5] [µg/mL] | MIC [6] [µg/mL] | anti-Pseudomonas activity [7] |
| --- | --- | --- | --- | --- | --- | --- | --- |
| CC(=O)Nc1ccc2ncc(C(=O)N[C@@H](C(=O)N[C@@H]3C(=O)N4[C@@H]3SC(C)(C)[C@@H]4C(=O)O)c3ccccc3)c(O)c2c1 [Example 17] | 12.5 (≈ 21.6 µM) | 3.13 (≈ 5.42 µM) | 3.13 (≈ 5.42 µM) | 0.1 (≈ 0.173 µM) | 6.25 (≈ 10.8 µM) | 0.78 (≈ 1.35 µM) | – |
| CC1(C)S[C@@H]2[C@H](NC(=O)C(NC(=O)c3ccccn3)c3ccccc3)C(=O)N2[C@H]1C(=O)O (stereo partly shown) [Compound, reference compound] | – | – | – | 0.39 (≈ 0.858 µM) | – | – | – |
| COc1cc2ncc(C(=O)N[C@@H](C(=O)N[C@@H]3C(=O)N4[C@@H]3SC(C)(C)[C@@H]4C(=O)O)c3ccccc3)c(O)c2cn1 [Example 16] | – | 6.25 (≈ 11.3 µM) | – | 0.2 (≈ 0.363 µM) | 6.25 (≈ 11.3 µM) | – | – |
| CC1(C)S[C@@H]2[C@H](NC(=O)[C@H](NC(=O)c3cnc(O)nc3O)c3ccccc3)C(=O)N2[C@H]1C(=O)O [Example 7] | 12.5 (≈ 25.6 µM) | 25 (≈ 51.3 µM) | 6.25 (≈ 12.8 µM) | 0.05 (≈ 0.103 µM) | 3.13 (≈ 6.42 µM) | 0.39 (≈ 0.8 µM) | – |
| CC1(C)S[C@@H]2[C@H](NC(=O)[C@H](NC(=O)c3cccnc3O)c3ccccc3)C(=O)N2[C@H]1C(=O)O [Example 11] | 12.5 (≈ 26.6 µM) | 25 (≈ 53.1 µM) | 25 (≈ 53.1 µM) | 0.2 (≈ 0.425 µM) | 6.25 (≈ 13.3 µM) | 0.39 (≈ 0.829 µM) | – |
| CC1(C)S[C@@H]2[C@H](NC(=O)C(C(=O)O)c3ccccc3)C(=O)N2[C@H]1C(=O)O (stereo partly shown) [Carbenicillin, reference compound] | – | – | – | 0.78 (≈ 2.06 µM) | 50 (≈ 132 µM) | – | not sufficiently strong |
| CC1(C)S[C@@H]2[C@H](NC(=O)[C@H](NC(=O)c3cnc4cccnc4c3O)c3ccc(O)cc3)C(=O)N2[C@H]1C(=O)O (mixture of isomers) [Example 2, D-α-(4-hydroxy-1,5-naphthyridine-3-carbonamido)-p-hydroxyphenylacetamidopenicillanic acid] | 0.78 | 6.25 | – | 0.0125 | 0.78 | 1.56 | – |
| CC1(C)S[C@@H]2[C@H](NC(=O)[C@H](NC(=O)c3cnc4cccnc4c3O)c3ccccc3)C(=O)N2[C@H]1C(=O)O [Example 1, D-α-(4-hydroxy-1,5-naphthyridine-3-carbonamido)benzylpenicillin] | 1.56 (≈ 2.99 µM) | 6.25 (≈ 12 µM) | 3.13 (≈ 6 µM) | 0.1 (≈ 0.192 µM) | 1.56 (≈ 2.99 µM) | 0.78 (≈ 1.5 µM) | – |
| CC1(C)S[C@@H]2[C@H](NC(=O)[C@H](NC(=O)c3cnccc3O)c3ccccc3)C(=O)N2[C@H]1C(=O)O [Example 3, D-α-(4-hydroxypyridine-3-carbonamido)benzylpenicillin] | 25 (≈ 53.1 µM) | 25 (≈ 53.1 µM) | 6.25 (≈ 13.3 µM) | 0.1 (≈ 0.213 µM) | 3.13 (≈ 6.65 µM) | 0.39 (≈ 0.829 µM) | – |
| CC1(C)S[C@@H]2[C@H](NC(=O)C(c3ccccc3)S(=O)(=O)O)C(=O)N2[C@H]1C(=O)O (stereo partly shown) [Sulfocillin] | – | – | – | – | – | – | not sufficiently strong |
| Cc1ccc2ncc(C(=O)N[C@@H](C(=O)N[C@@H]3C(=O)N4[C@@H]3SC(C)(C)[C@@H]4C(=O)O)c3ccc(O)cc3)c(O)c2n1 [Example 26] | 1.56 (≈ 2.83 µM) | – | – | 0.05 (≈ 0.0906 µM) | – | – | – |
| CC1(C)S[C@@H]2[C@H](NC(=O)[C@H](NC(=O)c3cnc4cccnc4c3O)C3=CCC=CC3)C(=O)N2[C@H]1C(=O)O [Example 6] | 1.56 (≈ 2.98 µM) | 3.13 (≈ 5.98 µM) | 3.13 (≈ 5.98 µM) | < 0.05 | 1.56 (≈ 2.98 µM) | 0.39 (≈ 0.745 µM) | – |
| CC1(C)S[C@@H]2[C@H](NC(=O)[C@H](NC(=O)c3cnc4ccccc4c3O)c3ccc(O)cc3)C(=O)N2[C@H]1C(=O)O [Example 22] | 6.25 (≈ 11.6 µM) | – | – | 0.2 (≈ 0.373 µM) | – | – | – |
| CC1(C)S[C@@H]2[C@H](NC(=O)[C@H](NC(=O)c3cnc4c(c3O)CCCC4)c3ccccc3)C(=O)N2[C@H]1C(=O)O [Example 12] | 12.5 (≈ 23.8 µM) | 6.25 (≈ 11.9 µM) | 6.25 (≈ 11.9 µM) | 0.05 (≈ 0.0953 µM) | 12.5 (≈ 23.8 µM) | 0.78 (≈ 1.49 µM) | – |
| CC1(C)S[C@@H]2[C@H](NC(=O)[C@H](NC(=O)c3ccnnc3O)c3ccccc3)C(=O)N2[C@H]1C(=O)O [Example 5, D-α-(3hydroxypyridazine-4-carbonamido)benzylpenicillin] | 12.5 (≈ 26.5 µM) | 6.25 (≈ 13.3 µM) | 6.25 (≈ 13.3 µM) | 0.05 (≈ 0.106 µM) | 3.13 (≈ 6.64 µM) | 0.39 (≈ 0.827 µM) | – |
| CC1(C)S[C@@H]2[C@H](NC(=O)[C@H](NC(=O)c3cnc4ccccc4c3O)c3ccccc3)C(=O)N2[C@H]1C(=O)O [Example 9] | – | – | – | 0.2 (≈ 0.384 µM) | – | – | – |
| CN(C)c1ccc2ncc(C(=O)N[C@@H](C(=O)N[C@@H]3C(=O)N4[C@@H]3SC(C)(C)[C@@H]4C(=O)O)C3=CCC=CC3)c(O)c2n1 [Example 28] | 1.56 (≈ 2.75 µM) | 6.25 (≈ 11 µM) | 1.56 (≈ 2.75 µM) | 0.05 (≈ 0.0882 µM) | 3.13 (≈ 5.52 µM) | 0.78 (≈ 1.38 µM) | – |
| CC1(C)S[C@@H]2[C@H](NC(=O)[C@H](NC(=O)c3cnc4cn[nH]c4c3O)c3ccccc3)C(=O)N2[C@H]1C(=O)O [Example 20] | 3.13 (≈ 6.13 µM) | 6.25 (≈ 12.2 µM) | 3.13 (≈ 6.13 µM) | 0.1 (≈ 0.196 µM) | 6.25 (≈ 12.2 µM) | 0.78 (≈ 1.53 µM) | – |
| Cc1ccc2c(O)c(C(=O)N[C@@H](C(=O)N[C@@H]3C(=O)N4[C@@H]3SC(C)(C)[C@@H]4C(=O)O)c3ccc(O)cc3)cnc2n1 [Example 19] | 6.25 (≈ 11.3 µM) | – | 25 (≈ 45.3 µM) | 0.39 (≈ 0.707 µM) | – | 1.56 (≈ 2.83 µM) | – |
| CC1(C)S[C@@H]2[C@H](NC(=O)[C@H](NC(=O)c3nc4ccccc4nc3O)c3ccccc3)C(=O)N2[C@H]1C(=O)O [Example 21] | 6.25 (≈ 12 µM) | 12.5 (≈ 24 µM) | 25 (≈ 47.9 µM) | 0.78 (≈ 1.5 µM) | 1.56 (≈ 2.99 µM) | 0.2 (≈ 0.383 µM) | – |

The remaining compounds from weak to strong by MIC [4], led by results:

| MIC [1] [µg/mL] | MIC [2] [µg/mL] | MIC [3] [µg/mL] | MIC [4] [µg/mL] | MIC [5] [µg/mL] | MIC [6] [µg/mL] | SMILES | anti-Pseudomonas activity [7] |
| --- | --- | --- | --- | --- | --- | --- | --- |
| 50 (≈ 91.1 µM) | 25 (≈ 45.6 µM) | 100 (≈ 182 µM) | 12.5 (≈ 22.8 µM) | 100 (≈ 182 µM) | 0.39 (≈ 0.711 µM) | CCOc1cnc2ccccc2c1C(=O)NC(C(=O)N[C@@H]1C(=O)N2[C@@H]1SC(C)(C)[C@@H]2C(=O)O)c1ccccc1 (stereo partly shown) [B, reference compound] | – |
| – | – | – | 0.78 (≈ 1.45 µM) | – | – | CC1(C)S[C@@H]2[C@H](NC(=O)[C@H](NC(=O)c3nnc4ccccc4c3O)c3ccc(O)cc3)C(=O)N2[C@H]1C(=O)O [Example 23] | – |
| 12.5 (≈ 24 µM) | 12.5 (≈ 24 µM) | 12.5 (≈ 24 µM) | 0.78 (≈ 1.5 µM) | 12.5 (≈ 24 µM) | 0.78 (≈ 1.5 µM) | CC1(C)S[C@@H]2[C@H](NC(=O)[C@H](NC(=O)c3nnc4ccccc4c3O)c3ccccc3)C(=O)N2[C@H]1C(=O)O [Example 4, D-α-(4-hydroxycinnoline-3-carbonamido)benzylpenicillin] | – |
| 12.5 (≈ 25.7 µM) | 200 (≈ 411 µM) | 25 (≈ 51.4 µM) | 0.2 (≈ 0.411 µM) | 3.13 (≈ 6.43 µM) | 1.56 (≈ 3.21 µM) | CC1(C)S[C@@H]2[C@H](NC(=O)[C@H](NC(=O)c3cnccc3O)c3ccc(O)cc3)C(=O)N2[C@H]1C(=O)O [Example 18] | – |
| 3.13 (≈ 5.84 µM) | 1.56 (≈ 2.91 µM) | 3.13 (≈ 5.84 µM) | 0.2 (≈ 0.373 µM) | 3.13 (≈ 5.84 µM) | 0.39 (≈ 0.728 µM) | Cc1ccc2c(O)c(C(=O)N[C@@H](C(=O)N[C@@H]3C(=O)N4[C@@H]3SC(C)(C)[C@@H]4C(=O)O)c3ccccc3)cnc2n1 [Example 15] | – |
| 6.25 (≈ 13.3 µM) | 25 (≈ 53.1 µM) | 25 (≈ 53.1 µM) | 0.2 (≈ 0.425 µM) | 6.25 (≈ 13.3 µM) | 0.2 (≈ 0.425 µM) | CC1(C)S[C@@H]2[C@H](NC(=O)[C@H](NC(=O)c3ncccc3O)c3ccccc3)C(=O)N2[C@H]1C(=O)O [Example 10] | – |
| 12.5 (≈ 25.8 µM) | 25 (≈ 51.6 µM) | 12.5 (≈ 25.8 µM) | 0.2 (≈ 0.413 µM) | 12.5 (≈ 25.8 µM) | 0.39 (≈ 0.805 µM) | Cc1ccc(C(=O)N[C@@H](C(=O)N[C@@H]2C(=O)N3[C@@H]2SC(C)(C)[C@@H]3C(=O)O)c2ccccc2)c(O)n1 [Example 13] | – |
| 1.56 (≈ 2.69 µM) | 3.13 (≈ 5.39 µM) | 1.56 (≈ 2.69 µM) | 0.1 (≈ 0.172 µM) | 3.13 (≈ 5.39 µM) | 3.13 (≈ 5.39 µM) | CN(C)c1ccc2ncc(C(=O)N[C@@H](C(=O)N[C@@H]3C(=O)N4[C@@H]3SC(C)(C)[C@@H]4C(=O)O)c3ccc(O)cc3)c(O)c2n1 [Example 14] | – |
| 25 (≈ 53 µM) | 100 (≈ 212 µM) | 12.5 (≈ 26.5 µM) | 0.05 (≈ 0.106 µM) | 3.13 (≈ 6.64 µM) | 0.39 (≈ 0.827 µM) | CC1(C)S[C@@H]2[C@H](NC(=O)[C@H](NC(=O)c3cncnc3O)c3ccccc3)C(=O)N2[C@H]1C(=O)O [Example 8] | – |
| 3.13 (≈ 5.51 µM) | – | – | 0.05 (≈ 0.0881 µM) | – | – | COc1ccc2ncc(C(=O)N[C@@H](C(=O)N[C@@H]3C(=O)N4[C@@H]3SC(C)(C)[C@@H]4C(=O)O)c3ccc(O)cc3)c(O)c2n1 [Example 27] | – |
